The text below walks through data of PMC8205030, “Methoxy and bromo scans on N-(5-methoxyphenyl) methoxybenzenesulphonamides reveal potent cytotoxic compounds, especially against the human breast adenocarcinoma MCF7 cell line” (Journal of Enzyme Inhibition and Medicinal Chemistry, 2021).

Series [1] relates to HeLa (human cervical carcinoma) cells. Kind of series: Cell growth assay (XTT), HeLa. Particulars: 72 h drug exposure, read-out: Antiproliferative activity IC50 HeLa. Type of series: cell-based. As for the experimental part:
(§1) The presence of mycoplasma was routinely checked with MycoAlert kit (Lonza-Cambrex) and only mycoplasma-free cells were used in the experiments. Tumour cell lines were kindly provided by Dr Faustino Mollinedo from Centro de Investigaciones Biológicas Margarita Salas, Madrid, Spain. To determine cell growth, cells in exponential growth phase were seeded (100 µL/well in 96-well plates) with appropriate cell concentration (1.5 × 10^4 cells/mL for MCF7, HeLa and HEK-293 and 3 × 10^4 cells/mL for HT-29) in complete DMEM or RPMI 1640 medium (see above) at 37 °C and 5% CO2 atmosphere. After 24 h incubation, to allow cells to attach to the plates, all compounds were added at 1 µM concentration (10 µL/well in 96-well plates) and the effect on the proliferation was evaluated 72 h post-treatment. Compounds showing antiproliferative effects at tested concentration were selected for IC50 calculation (50% inhibitory concentration compared to the untreated controls) from 10^−5 to 10^−10 M concentration. Nonlinear curves fitting the experimental data were carried out for each compound. […] A freshly prepared mixture solution of XTT labelling reagent with 0.02% (v/v) PMS (N-methyl-dibenzopyrazine methyl sulfate) electron coupling reagent was added to cells (50 µL/well in 96-well plates, the total volume of 160 µL/well) and were incubated during the corresponding time according to each cell line (4 h for MCF7 and HeLa and 6 h for HT-29 and HEK-293) in a humidified atmosphere (37 °C, 5% CO2). The absorbance of the formazan product generated was measured at a test wavelength of 450 nm using a multi-well plate reader (Ultra Evolution, Tecan, Männedorf, Suiza). Compounds were dissolved in DMSO and the final solvent concentrations never exceeded 0.5% (v/v). The control wells included treated cells with 0.5% (v/v) DMSO and the positive control. 10 µM verapamil was included as a control for the HT-29 cell line. Measurements were performed in triplicate, and each experiment was repeated three times.

Series [2] has as its target T1, microtubular protein isolated from calf brain (Bos taurus, UniProt P81947+Q6B856).
T1 construct: isolated from calf brain according to the modified Shelanski method; from tissue; host or cells: calf brain
Kind of series: Inhibition of tubulin polymerisation (turbidity). The class given is biochemical. The conditions noted are these: for TPI % 10 µM: 10 µM compound, 1.5 mg/mL microtubular protein; for IC50: in vitro tubulin polymerisation inhibition, read-out: TPI IC50. As for the experimental part:
Microtubular protein was isolated from calf brain according to the modified Shelanski method[23]^,[24] by two cycles of temperature-dependent assembly/disassembly and stored at −80 °C. Before each use, protein concentration is determined by Bradford method[25] taking BSA as standard. Tubulin polymerisation was monitored using a Helios α spectrophotometer by measuring the increase in turbidity at 450 nm, caused by a shift from 4 °C to 37 °C, which allows the in vitro microtubular protein to depolymerise and to polymerise, respectively. The assay was carried out in quartz cuvettes containing 1.5 mg/mL microtubular protein and the ligand (except for control cuvette with only DMSO at the same concentration) in a mixture of 0.1 M MES buffer, 1 mM EGTA, 1 mM MgCl2, 1 mM β-ME, and 1.5 mM GTP at pH 6.7 (final volume 500 µL). Cuvettes were preincubated at 20 °C for 30 min, to allow ligand binding to tubulin, and subsequently cooled on ice for 10 min. Then, the experiment starts at 4 °C to establish the initial baseline. The assembly process was initiated by a temperature shift to 37 °C and the turbidity produced by tubulin polymerisation can be measured by an absorbance increase. After reaching a stable plateau, the temperature was switched back to 4 °C to return to the initial absorption values (to confirm the reversible nature of the monitored process and to determine whether or not the microtubular protein has stabilized). The difference in amplitude between the stable plateau and the initial baseline of the curves was taken as the degree of tubulin polymerisation for each experiment. […] All compounds were tested at 10 µM concentration. IC50 values were calculated for compounds that inhibit tubulin polymerisation more than 50% at 10 µM. […] All the measurements were carried out in at least two independent experiments using microtubular protein from different preparations.

In series [3] the test system is HT-29 (human colon carcinoma) cells. In words: Cell growth assay (XTT), HT-29, alone or with verapamil. The class given is cell-based. As for the experimental part: as §1, with “Compounds showing antiproliferative effects at tested concentration were selected for IC50 calculation (50% inhibitory concentration compared to the untreated controls) from 10^−5 to 10^−10 M concentration.” left out

Series [4] relates to MCF7 (human breast carcinoma) cells. Kind of series: Cell growth assay (XTT), MCF7. The class given is cell-based. The conditions noted are these: for IC50: Homo sapiens, MCF7, 72 h drug exposure, XTT, read-out: Antiproliferative activity IC50 MCF7. As for the experimental part: as §1
[5] abbreviates: Homo sapiens, HT-29, 72 h drug exposure, XTT, read-out: Antiproliferative activity IC50 HT-29.
[6] abbreviates: 72 h, in the presence of Pgp/MDR1 inhibitor verapamil (10 µM), read-out: Antiproliferative activity IC50 HT-29 Verap.

Read-outs that look alike come from different tables or passages of the source.

T1 sequence (Q6B856 whole entry): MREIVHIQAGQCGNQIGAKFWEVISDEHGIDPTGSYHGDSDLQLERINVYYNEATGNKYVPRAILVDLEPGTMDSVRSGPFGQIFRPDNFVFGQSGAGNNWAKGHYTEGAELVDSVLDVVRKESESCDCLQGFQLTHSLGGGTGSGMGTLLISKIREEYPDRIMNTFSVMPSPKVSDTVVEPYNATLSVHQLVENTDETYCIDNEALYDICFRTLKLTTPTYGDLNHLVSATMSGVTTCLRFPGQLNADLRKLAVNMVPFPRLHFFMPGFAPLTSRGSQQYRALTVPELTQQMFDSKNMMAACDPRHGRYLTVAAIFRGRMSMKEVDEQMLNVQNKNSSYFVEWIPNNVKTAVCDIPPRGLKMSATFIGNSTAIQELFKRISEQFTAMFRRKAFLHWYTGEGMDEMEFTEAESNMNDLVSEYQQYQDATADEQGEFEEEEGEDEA
T1 sequence (P81947 whole entry): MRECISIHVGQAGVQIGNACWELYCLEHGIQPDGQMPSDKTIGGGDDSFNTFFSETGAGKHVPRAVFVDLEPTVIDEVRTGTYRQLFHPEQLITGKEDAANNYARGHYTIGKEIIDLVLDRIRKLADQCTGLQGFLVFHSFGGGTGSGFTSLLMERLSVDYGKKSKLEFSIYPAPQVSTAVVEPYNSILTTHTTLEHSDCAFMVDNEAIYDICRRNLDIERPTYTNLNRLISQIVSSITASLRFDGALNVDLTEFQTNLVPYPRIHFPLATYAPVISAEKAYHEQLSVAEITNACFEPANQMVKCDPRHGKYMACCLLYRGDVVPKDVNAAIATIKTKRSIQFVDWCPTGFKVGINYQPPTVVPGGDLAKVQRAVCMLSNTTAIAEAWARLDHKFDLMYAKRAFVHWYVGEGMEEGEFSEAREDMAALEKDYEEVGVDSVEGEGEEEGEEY

The compound `CCOC(=O)CN(c1cc(OC)c(OC)cc1Br)S(=O)(=O)c1ccc(OC)cc1` [Compound 17, Ethyl N-(2-bromo-4,5-dimethoxyphenyl)-N-((4-methoxyphenyl)sulphonyl)glycinate] displayed a melting point of 116 to 126 °C. Besides, the IC50 in series [1] is greater than 1 µM. In series [2], the “TPI % 10 µM” value is listed as 0% and the IC50 was greater than 10 µM. Also, the IC50 in series [3] (setting [5]) is greater than 1 µM. Further, the IC50 in series [4] was greater than 1 µM.
With `COc1ccc(S(=O)(=O)N(C)c2cc(OC)c(Br)c(OC)c2)cc1` [Compound 8a, N-(4-bromo-3,5-dimethoxyphenyl)-4-methoxy-N-methylbenzenesulphonamide], the half-inhibitory concentration (IC50) was 0.497 µM in series [1]; greater than 10 µM in series [2]; 0.293 µM in series [3] (setting [6]); 0.495 µM in series [3] (setting [5]); 0.099 µM in series [4]. Further, in series [2], the “TPI % 10 µM” value turned out to be 10%. In addition, the “Fold more potent against MCF7 than against HeLa” value in series [4] (ratio of IC50 values) is reported as 4–7 fold.
Take `COc1ccc(S(=O)(=O)N(Cc2ccccc2)c2cc(OC)cc(OC)c2Br)cc1` [Compound 10b, N-benzyl-N-(2-bromo-3,5-dimethoxyphenyl)-4-methoxybenzenesulphonamide]: the IC50 in series [1] was greater than 1 µM; in series [2], greater than 10 µM; in series [3] (setting [5]), greater than 1 µM; in series [4], greater than 1 µM. Also, the “TPI % 10 µM” value in series [2] turned out to be 0%.
For `COc1ccc(S(=O)(=O)N(C(=O)OCc2ccccc2)c2cc(OC)cc(OC)c2)cc1` [Compound 7, Benzyl (3,5-dimethoxyphenyl)((4-methoxyphenyl)sulphonyl)carbamate], the melting point lay within 129 to 131 °C. The half-maximal inhibitory concentration (IC50) in series [1] was greater than 1 µM. In series [2], the “TPI % 10 µM” value is listed as 0% and the IC50 is greater than 10 µM. Moreover, the IC50 in series [3] (setting [5]) is greater than 1 µM. Moreover, the half-inhibitory concentration (IC50) in series [4] was greater than 1 µM.
As to `COc1ccc(S(=O)(=O)N(Cc2ccccc2)c2cc(OC)c(OC)cc2OC)cc1` [Compound 37, N-benzyl-4-methoxy-N-(2,4,5-trimethoxyphenyl)benzenesulphonamide], the melting point was in the range of 130 to 139 °C. The IC50 in series [1] was 0.833 µM. In addition, in series [2], the “TPI % 10 µM” value is reported as 7% and the IC50 is greater than 10 µM. Besides, the IC50 in series [3] (setting [5]) came to 1.25 µM.
As for `COc1ccc(S(=O)(=O)N(Cc2ccccc2)c2cc(OC)c(Br)c(OC)c2)cc1` [Compound 10a, N-benzyl-N-(4-bromo-3,5-dimethoxyphenyl)-4-methoxybenzenesulphonamide], the IC50 was 0.31 µM in series [1]; greater than 10 µM in series [2]; 0.533 µM in series [3] (setting [6]); 0.45 µM in series [3] (setting [5]); 0.335 µM in series [4]. The “TPI % 10 µM” value in series [2] came to 0%.
Consider `CCOC(=O)CN(c1cc(OC)c(Br)cc1OC)S(=O)(=O)c1ccc(OC)cc1` [Compound 26, Ethyl N-(4-bromo-2,5-dimethoxyphenyl)-N-((4-methoxyphenyl)sulphonyl)glycinate], for which the IC50 was 0.577 µM in series [1]; greater than 10 µM in series [2]; 0.867 µM in series [3] (setting [6]); 2.1 µM in series [3] (setting [5]); 0.7 µM in series [4]. For the same compound, the “TPI % 10 µM” value in series [2] was 28%.
Take `CCOC(=O)N(c1cc(OC)c(Br)cc1OC)S(=O)(=O)c1ccc(OC)cc1` [Compound 27, Ethyl (4-bromo-2,5-dimethoxyphenyl)((4-methoxyphenyl)sulphonyl)carbamate]: the IC50 is 0.377 µM in series [1]; greater than 10 µM in series [2]; 0.17 µM in series [3] (setting [6]); 0.525 µM in series [3] (setting [5]); 0.22 µM in series [4]. Besides, the “TPI % 10 µM” value in series [2] is on record as 44%. Besides, the “Difference in HT-29 IC50 values from co-treatment with MDR inhibitor” value in series [3] (without vs with verapamil 10 µM) is “higher than 3 fold”.
In the case of `CCN(c1cc(OC)c(Br)c(OC)c1)S(=O)(=O)c1ccc(OC)cc1` [Compound 9a, N-(4-bromo-3,5-dimethoxyphenyl)-N-ethyl-4-methoxybenzenesulphonamide], the values for the half-maximal inhibitory concentration (IC50) in series [1], in series [2] and in series [3] (setting [5]) were 0.417 µM, greater than 10 µM and 0.61 µM, respectively. Further, in series [2], the “TPI % 10 µM” value is listed as 0%.
In the case of `CCOC(=O)CN(c1cc(OC)cc(OC)c1)S(=O)(=O)c1ccc(OC)cc1` [Compound 5, Ethyl N-(3,5-dimethoxyphenyl)-N-((4-methoxyphenyl)sulphonyl)glycinate], the IC50 in series [1] is greater than 1 µM; in series [2], greater than 10 µM; in series [3] (setting [5]), greater than 1 µM; in series [4], greater than 1 µM. Moreover, the “TPI % 10 µM” value in series [2] came to 0%.
As for `COc1ccc(S(=O)(=O)Nc2cc(OC)c(OC)c(OC)c2)cc1` [TMP[41], N-(3,4,5-trimethoxyphenyl)-4-methoxyphenylsulphonamide, reference compound], the IC50 came to 0.24 µM in series [1] and 0.975 µM in series [3] (setting [6]).
Take `COc1ccc(S(=O)(=O)N(Cc2ccccc2)c2cc(OC)c(Br)c(OC)c2Br)cc1` [Compound 10c, N-benzyl-N-(2,4-dibromo-3,5-dimethoxyphenyl)-4-methoxybenzenesulphonamide]: the 50% inhibitory concentration (IC50) was greater than 1 µM in series [1], greater than 10 µM in series [2], greater than 1 µM in series [3] (setting [5]) and greater than 1 µM in series [4]. Besides, the “TPI % 10 µM” value in series [2] is 0%.
As to `COc1ccc(S(=O)(=O)Nc2cccnc2Nc2ccc(O)cc2)cc1` [ABT-751, reference compound], the IC50 in series [1] stood at 0.388 µM; in series [2], 4.4 µM; in series [4] it was 0.18 µM. Further, the “TPI % 10 µM” value in series [2] is 69%.
In the case of `COc1ccc(S(=O)(=O)N(CC2CO2)c2cc(OC)c(Br)cc2OC)cc1` (stereo not drawn) [Compound 28, N-(4-bromo-2,5-dimethoxyphenyl)-4-methoxy-N-(oxiran-2-ylmethyl)benzenesulphonamide], the half-inhibitory concentration (IC50) in series [1] is 0.495 µM; in series [2], greater than 10 µM; in series [3] (setting [5]), 0.86 µM. The “TPI % 10 µM” value in series [2] is reported as 32%.
